Results published in patent US20260325540A1 (priority 2023, published 2026).

Biological target: SARS-CoV-2 3CLpro (Severe acute respiratory syndrome coronavirus 2, UniProt P0DTD1)
Experiment: FRET based protease assay, SARS-CoV-2 3CL
Format: biochemical, SARS-CoV-2 (strain BetaCoV/Wuhan/WIV04/2019)
Conditions: not given

SMILES	IC50 [µM]
CC(C)C[C@@H]1NC(=O)CCCCC[C@@H]2CNC(=O)[C@H]2C[C@@H](C=O)NC1=O [Example 31]	> 20
CC(C)(C)C(=O)N[C@H]1CCCC[C@H]2CNC(=O)[C@H]2C[C@@H](C#N)NC(=O)[C@@H]2CCCN2C1=O [Example 74]	1 to 20
CC(C)C[C@@H]1NC(=O)[C@@H](NC(=O)C(C)(C)C)CC/C=C\[C@H]2CNC(=O)[C@H]2C[C@@H](C#N)NC1=O [Example 59]	0.1 to 1
CC(C)(C(=O)N[C@H]1CCCC[C@H]2CNC(=O)[C@H]2C[C@@H](C#N)NC(=O)[C@@H]2[C@@H]3[C@H](CN2C1=O)C3(C)C)c1ccc(Cl)cc1 [Example 121]	< 0.1
CC1(C)[C@@H]2[C@H]3C(=O)N[C@H](C#N)C[C@@H]4C(=O)NC[C@@H]4/C=C/CC[C@H](NC(=O)C(F)(F)F)C(=O)N3C[C@@H]21 [Example 108]	< 0.1
CC(C)(C)C[C@@H]1NC(=O)[C@@H](NC(=O)c2ccc(Cl)c(Cl)c2)CCCC[C@H]2CNC(=O)[C@H]2C[C@@H](C#N)NC1=O [Example 136]	< 0.1
CC1(C)[C@@H]2[C@H]3C(=O)N[C@H](C#N)C[C@@H]4C(=O)NC[C@@H]4CCCC[C@H](NS(=O)(=O)C4CC4)C(=O)N3C[C@@H]21 [Example 156]	< 0.1
CC1(C)[C@@H]2[C@H]3C(=O)N[C@H](C#N)C[C@@H]4C(=O)NC[C@@H]4CCCC[C@H](N)C(=O)N3C[C@@H]21 [Example 161]	0.1 to 1
CC1(C)[C@@H]2[C@H]3C(=O)N[C@H](C#N)C[C@@H]4C(=O)NC[C@@H]4CCCC[C@H](NS(=O)(=O)C(F)(F)F)C(=O)N3C[C@@H]21 [Example 158]	< 0.1
CC(C)(C)OC(=O)N[C@H]1CCCC[C@H]2CNC(=O)[C@H]2C[C@@H](C#N)NC(=O)[C@@H]2[C@H]3CC[C@H](C3)N2C1=O [Example 127]	1 to 20
CC1(C)[C@@H]2[C@H]3C(=O)N[C@H](C#N)C[C@@H]4C(=O)NC[C@@H]4CCCC[C@H](NC(=O)c4cncnc4)C(=O)N3C[C@@H]21 [Example 107]	< 0.1
CC(C)(C)C[C@@H]1NC(=O)[C@@H](NC(=O)C2(C(F)(F)F)CC2)CCCC[C@H]2CNC(=O)[C@H]2C[C@@H](C#N)NC1=O [Example 149]	< 0.1
CC1(C)[C@@H]2[C@H]3C(=O)N[C@H](C#N)C[C@@H]4C(=O)NC[C@@H]4CCCC[C@H](NS(=O)(=O)C4CCC4)C(=O)N3C[C@@H]21 [Example 160]	< 0.1
CC(C)C[C@@H]1NC(=O)CCCCCC[C@@H]2CNC(=O)[C@@H]2C[C@@H](C=O)NC1=O [Example 46]	1 to 20
CC(C)C[C@@H]1NC(=O)[C@H](Cc2ccccc2)CCC[C@H]2CNC(=O)[C@H]2C[C@@H](C=O)NC1=O [Example 12]	0.1 to 1
CC(C)C[C@@H]1NC(=O)CCCCCC[C@H]2CNC(=O)[C@H]2C[C@@H](C=O)NC1=O [Example 45]	0.1 to 1
CC(C)C[C@@H]1NC(=O)CCCC[C@H]2CNC(=O)[C@@H]2C[C@@H](C#N)NC1=O [Example 24]	1 to 20
CC1(C)[C@@H]2[C@H]3C(=O)N[C@H](C#N)C[C@@H]4C(=O)NC[C@@H]4CCCC[C@H](NC(=O)OC4CCCC4)C(=O)N3C[C@@H]21 [Example 75]	< 0.1
CC1(C)[C@@H]2[C@H]3C(=O)N[C@H](C#N)C[C@@H]4C(=O)NC[C@@H]4CCCC[C@H](NC(=O)c4ccc(F)cc4)C(=O)N3C[C@@H]21 [Example 82]	< 0.1
CC1(C)[C@@H]2[C@H]3C(=O)N[C@H](C#N)C[C@@H]4C(=O)NC[C@@H]4CCCC[C@H](NC(=O)C4(C(F)(F)F)CC4)C(=O)N3C[C@@H]21 [Example 117]	< 0.1
CC1(C)[C@@H]2[C@H]3C(=O)N[C@H](C#N)C[C@H]4C(=O)NC[C@@H]4CCCCC(=O)N3C[C@@H]21 [Example 25]	1 to 20
N#C[C@@H]1C[C@@H]2C(=O)NC[C@@H]2CCCC[C@H](NC(=O)OC2CCCC2)C(=O)N2C[C@@H]3CCC[C@@H]3[C@H]2C(=O)N1 [Example 94]	< 0.1
CC1(C)[C@@H]2[C@H]3C(=O)N[C@H](C#N)C[C@@H]4C(=O)NC[C@@H]4CCCC[C@H](NS(=O)(=O)c4ccccc4)C(=O)N3C[C@@H]21 [Example 154]	< 0.1
CC(C)C[C@@H]1NC(=O)[C@@H](C2CCCC2)CCC[C@H]2CNC(=O)[C@H]2C[C@@H](C=O)NC1=O [Example 13]	1 to 20

Biological target: MERS-CoV 3CLpro (Middle East respiratory syndrome-related coronavirus, UniProt K9N638)
Experiment: biochemical
Conditions: MERS IC50, 75 nM MERS-CoV 3CLpro, 6 μM peptide 1 substrate, 25° C., 1.5 hrs, pH 7.5

MERS-CoV 3CLpro, sequence (K9N638 3248-3553 limits assumed): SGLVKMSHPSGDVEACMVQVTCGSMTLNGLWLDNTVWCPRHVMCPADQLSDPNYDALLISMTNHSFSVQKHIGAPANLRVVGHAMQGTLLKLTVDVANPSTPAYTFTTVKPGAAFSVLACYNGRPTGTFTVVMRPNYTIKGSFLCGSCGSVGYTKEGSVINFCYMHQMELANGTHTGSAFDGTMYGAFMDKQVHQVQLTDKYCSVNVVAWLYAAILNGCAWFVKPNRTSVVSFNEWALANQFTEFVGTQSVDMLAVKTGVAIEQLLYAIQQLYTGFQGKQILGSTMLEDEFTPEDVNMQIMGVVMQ

SMILES	IC50 [µM]
CC(C)C[C@@H]1NC(=O)CCCCC[C@@H]2CNC(=O)[C@H]2C[C@@H](C=O)NC1=O [Example 31]	> 20
CC(C)(C)C(=O)N[C@H]1CCCC[C@H]2CNC(=O)[C@H]2C[C@@H](C#N)NC(=O)[C@@H]2CCCN2C1=O [Example 74]	1 to 20
CC(C)C[C@@H]1NC(=O)[C@@H](NC(=O)C(C)(C)C)CC/C=C\[C@H]2CNC(=O)[C@H]2C[C@@H](C#N)NC1=O [Example 59]	1 to 20
CC(C)(C(=O)N[C@H]1CCCC[C@H]2CNC(=O)[C@H]2C[C@@H](C#N)NC(=O)[C@@H]2[C@@H]3[C@H](CN2C1=O)C3(C)C)c1ccc(Cl)cc1 [Example 121]	0.1 to 1
CC1(C)[C@@H]2[C@H]3C(=O)N[C@H](C#N)C[C@@H]4C(=O)NC[C@@H]4/C=C/CC[C@H](NC(=O)C(F)(F)F)C(=O)N3C[C@@H]21 [Example 108]	< 0.1
CC(C)(C)C[C@@H]1NC(=O)[C@@H](NC(=O)c2ccc(Cl)c(Cl)c2)CCCC[C@H]2CNC(=O)[C@H]2C[C@@H](C#N)NC1=O [Example 136]	< 0.1
CC1(C)[C@@H]2[C@H]3C(=O)N[C@H](C#N)C[C@@H]4C(=O)NC[C@@H]4CCCC[C@H](NS(=O)(=O)C4CC4)C(=O)N3C[C@@H]21 [Example 156]	< 0.1
CC1(C)[C@@H]2[C@H]3C(=O)N[C@H](C#N)C[C@@H]4C(=O)NC[C@@H]4CCCC[C@H](N)C(=O)N3C[C@@H]21 [Example 161]	1 to 20
CC1(C)[C@@H]2[C@H]3C(=O)N[C@H](C#N)C[C@@H]4C(=O)NC[C@@H]4CCCC[C@H](NS(=O)(=O)C(F)(F)F)C(=O)N3C[C@@H]21 [Example 158]	< 0.1
CC(C)(C)OC(=O)N[C@H]1CCCC[C@H]2CNC(=O)[C@H]2C[C@@H](C#N)NC(=O)[C@@H]2[C@H]3CC[C@H](C3)N2C1=O [Example 127]	1 to 20
CC1(C)[C@@H]2[C@H]3C(=O)N[C@H](C#N)C[C@@H]4C(=O)NC[C@@H]4CCCC[C@H](NC(=O)c4cncnc4)C(=O)N3C[C@@H]21 [Example 107]	< 0.1
CC(C)(C)C[C@@H]1NC(=O)[C@@H](NC(=O)C2(C(F)(F)F)CC2)CCCC[C@H]2CNC(=O)[C@H]2C[C@@H](C#N)NC1=O [Example 149]	0.1 to 1
CC1(C)[C@@H]2[C@H]3C(=O)N[C@H](C#N)C[C@@H]4C(=O)NC[C@@H]4CCCC[C@H](NS(=O)(=O)C4CCC4)C(=O)N3C[C@@H]21 [Example 160]	< 0.1
CC(C)C[C@@H]1NC(=O)CCCCCC[C@@H]2CNC(=O)[C@@H]2C[C@@H](C=O)NC1=O [Example 46]	1 to 20
CC(C)C[C@@H]1NC(=O)[C@H](Cc2ccccc2)CCC[C@H]2CNC(=O)[C@H]2C[C@@H](C=O)NC1=O [Example 12]	1 to 20
CC(C)C[C@@H]1NC(=O)CCCCCC[C@H]2CNC(=O)[C@H]2C[C@@H](C=O)NC1=O [Example 45]	1 to 20
CC(C)C[C@@H]1NC(=O)CCCC[C@H]2CNC(=O)[C@@H]2C[C@@H](C#N)NC1=O [Example 24]	1 to 20
CC1(C)[C@@H]2[C@H]3C(=O)N[C@H](C#N)C[C@@H]4C(=O)NC[C@@H]4CCCC[C@H](NC(=O)OC4CCCC4)C(=O)N3C[C@@H]21 [Example 75]	< 0.1
CC1(C)[C@@H]2[C@H]3C(=O)N[C@H](C#N)C[C@@H]4C(=O)NC[C@@H]4CCCC[C@H](NC(=O)c4ccc(F)cc4)C(=O)N3C[C@@H]21 [Example 82]	< 0.1
CC1(C)[C@@H]2[C@H]3C(=O)N[C@H](C#N)C[C@@H]4C(=O)NC[C@@H]4CCCC[C@H](NC(=O)C4(C(F)(F)F)CC4)C(=O)N3C[C@@H]21 [Example 117]	< 0.1
CC1(C)[C@@H]2[C@H]3C(=O)N[C@H](C#N)C[C@H]4C(=O)NC[C@@H]4CCCCC(=O)N3C[C@@H]21 [Example 25]	1 to 20
N#C[C@@H]1C[C@@H]2C(=O)NC[C@@H]2CCCC[C@H](NC(=O)OC2CCCC2)C(=O)N2C[C@@H]3CCC[C@@H]3[C@H]2C(=O)N1 [Example 94]	< 0.1
CC1(C)[C@@H]2[C@H]3C(=O)N[C@H](C#N)C[C@@H]4C(=O)NC[C@@H]4CCCC[C@H](NS(=O)(=O)c4ccccc4)C(=O)N3C[C@@H]21 [Example 154]	< 0.1
CC(C)C[C@@H]1NC(=O)[C@@H](C2CCCC2)CCC[C@H]2CNC(=O)[C@H]2C[C@@H](C=O)NC1=O [Example 13]	1 to 20
